{"source": "patent US8759488B2", "about": "“High stability streptavidin mutant proteins” (Isis Innovation Limited, priority 2009, dated 2014)", "key": {"[1]": {"details": "cited from earlier work"}, "[2]": {"test": "Biotin-4-fluorescein (B-4-F) off-rate assay", "assay_type": "binding", "procedure": "The off rate of streptavidin or the streptavidin mutants for biotin can be easily measured using the Biotin-4-fluorescein (B-4-F) off-rate assay described in the Examples. In this assay streptavidin (or a mutant thereof) is incubated with 12 nM B-4-F for 30 minutes at 37° C., where the binding of B-4-F to streptavidin quenches fluorescence. Excess biotin (100 μM) is added and fluorescence is then measured every 10 minutes for 10-18 hours. The rate of recovery of fluorescence indicates B-4-F off-rate from the streptavidin. Thus, the quicker that the fluorescence is seen in the sample the higher is the off rate, as fluorescence only starts to increase once B-4-F has dissociated from streptavidin.\nThe amount of B-4-F recovered during an incubation with wildtype streptavidin is at least 9%, for example 10, 11 or 12%. The amount of B-4-F recovered after a 10 hour incubation with a mutant streptavidin of the present invention may be less than 9%, for example less than 8, 7, 6, 5, 4, 3, 2 or 1%. Particularly, the amount of B-4-F recovered may be 2-3%.\nThe off-rate of biotin-4-fluorescein from avidin, streptavidin or traptavidin was measured using a PHERAstar plate-reader with 480 nm excitation and 520 nm emission (BMG LABTECH). In this assay the binding of biotin-4-fluorescein to an excess of binding protein results in quenching of fluorescein emission (Kada et al., 1999, Biochim. Biophys. Acta, 1427, 33-43). As the biotin-4-fluorescein dissociates, the fluorescence recovers. The assay was performed in the presence of excess biotin so that sites left open by biotin-4-fluorescein dissociation are immediately re-filled by biotin. 1 μM protein in 10 μL PBS was added to 12 nM biotin-4-fluorescein (Invitrogen), 0.12 mg/mL BSA in 170 μL PBS and incubated for 1 hr at 37° C. 20 μL PBS or 20 μL 1 mM biotin in PBS was then added and fluorescence measurements immediately started at 37° C. Percentage dissociation was calculated as (signal with biotin−signal without biotin)/(signal without quenching−signal without biotin)×100.\nSince biotin-4-fluorescein fluorescence is decreased at low pH, 100 nM streptavidin, S52G R53N streptavidin, S52G R53S streptavidin, or traptavidin was incubated with 12 nM biotin-4-fluorescein in 100 mM NaCl, 30 mM sodium citrate pH 5.0 for 3 hr at 25° C., before incubating at 37° C. and adding 100 μM biotin and incubating for various times. Samples were then placed on ice to block further dissociation, adjusted to pH 7.2 with 1M HEPES pH 8.3, and fluorescence intensity was immediately measured as above. p-values were calculated using two-tailed Student t-tests from the data at the final timepoint."}, "[3]": {"system": "biotinylated DNA with FtsK50C", "test": "FtsK displacement assay", "design": "species or system E. coli", "details": "in the presence of ATP, 2 min, 25° C.", "quoted_text": "The FtsK displacement assay was performed at 25° C. in 25 mM Tris pH 7.5, 10 mM MgCl2. 5.9 nM DNA fragment was incubated with 0.5 μM streptavidin or traptavidin for 15 min, followed by 100 μM biotin to block free biotin binding sites. 1 μM FtsK50C was added and allowed to bind to the DNA for 5 min. 2.5 mM ATP was added to start the reaction, which was stopped after 2 min with 0.1% SDS and 20 mM EDTA. Samples were incubated for 20 mM to allow FtsK50C denaturation, mixed with 10× gel loading buffer (250 mM Tris pH 7.5, 20 mM EDTA, 50% glycerol, 2.5% bromophenol blue) and loaded on a 1.5% agarose gel in 1×TBE (89 mM Tris, 89 mM boric acid, 2 mM EDTA, pH 8.3) at 10 V/cm for 2 hr at 25° C. Gels were stained with SYBR Green (Invitrogen) for 2 hr, washed in ddH2O for 30 mM, imaged using a Fuji FLA3000 scanner, and quantified using Image Gauge software (Fuji). p-values were calculated using a two-tailed Student t-test."}, "[4]": {"details": "free biotin; cited from earlier work"}, "[5]": {"details": "depending on the conjugate; cited from earlier work"}, "[6]": {"test": "Thermostability of biotin-conjugate binding (agarose gel)", "details": "for dissociation of biotinylated DNA at 70° C.: 3 min", "description": "For example, thermostability for biotin or a biotin conjugate can be measured in terms of the temperature at which 50% of the biotin or biotin conjugate is bound by the streptavidin, i.e. the temperature at which there is 50% dissociation. […] Thermostability for biotin or a biotin conjugate can be easily determined by heating streptavidin or a mutant thereof with biotin or a biotin conjugate to a particular temperature and then placing on ice. The amounts of free versus bound biotin conjugate present can be determined using an agarose gel and quantifying the band intensities.\nTo determine the thermostability of bioin-conjugate binding, 5.0 μM streptavidin or traptavidin in PBS was incubated with 21 nM monobiotinylated DNA in 4 μL for 30 minutes at 25° C. The samples were made up to a total volume of 10 μL with a final concentration of 100 μM biotin, 20 mM Tris acetate, 1 mM DDT, 2 mM magnesium acetate and 20 mM potassium glutamate pH 7.5 and were incubated for 5 minutes at 25° C. Samples were then heated at the indicated temperature for 3 minutes using a Thermal Cycler and cooled to 10° C. An agarose gel of 1.5% was run at 6.0V/cm in TAE at 25° C. for 45 minutes and DNA stained with ethidium bromide was visualized using a ChemiDoc XRS imager and QuantityOne 4.6 software. The percentages were calculated as 100× the intensity of the band for free DNA divided by the summed intensities of the bands for free and bound DNA. The 439 bp biotinylated DNA was prepared by PCR using Taq polymerase employing the primers Fts1 and the internally biotinylated primer bioFts2 (Eurofins) from the plasmid pJEG41-N1."}, "[7]": {"test": "Thermostability of the tetramer structure (SDS-PAGE)", "assay_type": "physicochemical", "details": "absence of biotin, heated 3 min", "description": "Streptavidin naturally occurs in tetrameric form i.e. made up of four streptavidin subunits. Streptavidin tetramers will however dissociate into monomeric form at high temperatures. […] For example, thermostability can be measured in terms of the temperature at which 50% of streptavidin is in the tetrameric form and 50% is in the monomeric form i.e. the temperature at which there is 50% dissociation.\nThermostability can be easily determined by heating streptavidin or a mutant thereof to a particular temperature and then placing on ice. The amounts of subunits/tetramers present can be determined using SDS-PAGE and quantifying band intensities.\n3 μM streptavidin or traptavidin in PBS was heated at the indicated temperature for 3 min in a Bio-Rad DNA Engine® Peltier Thermal Cycler and then immediately placed on ice (Bayer et al., 1996, Electrophoresis, 17, 1319-1324). Samples were mixed with 6×SDS-PAGE loading buffer and loaded onto a 18% polyacrylamide gel. The 100% monomer positive control was mixed with SDS loading buffer prior to heating at 95° C. for 3 min. Band intensities were quantified using a ChemiDoc XRS imager and QuantityOne 4.6 software (Bio-Rad)."}, "[8]": {"test": "On-rate assay (biotin-4-fluorescein quenching)", "assay_type": "binding", "procedure": "The on rate can be measured again using an adapted B-4-F assay as described above. […] The on rate can therefore be established by the decrease in the amount of fluorescence which occurs over the incubation time. The faster the rate of decrease in fluorescence, the higher the on rate.\nThe on-rate of biotin-4-fluorescein from streptavidin or traptavidin was measured in PBS on a PHERAstar plate-reader (BMG LABTECH). In this assay the binding of biotin-4-fluorescein to streptavidin/traptavidin results in quenching of the fluorescein emission (Kada et al., 1999). 20 μL 10 nM streptavidin or traptavidin was added to 180 μL 56 μM biotin-4-fluorescein and the fluorescein emission at measured every 6 s at 25° C. The concentration of free biotin-4-fluorescein was calculated as (signal with biotin−signal without biotin)/(signal without quenching−signal without biotin)×50 μM starting biotin-4-fluorescein. Linear regression using GraphPad Prism was applied to the plot of 1n free biotin-4-fluorescein against time, with the gradient equal to kon×[streptavidin or traptavidin]."}, "[9]": {"system": "AP-IGF1R/BirA-ER expressing COST cells", "test": "Cellular imaging with Alexa Fluor 555 conjugates", "assay_type": "cell-based", "procedure": "Streptavidin and […] labeled with Alexa Fluor 555 by adding 1/10 volume of 1 M NaHCO3 pH 8.3 and then a 10-fold molar excess of Alexa Fluor 555 succinimidyl ester (Invitrogen) (stock dissolved at 1 mg/mL in dry dimethylformamide) and incubating for 4 hr at room temperature. Free dye was separated using 1 mL packed volume Sephadex G-25 (Sigma) in a poly-prep column. Fractions containing labelled protein were pooled and dye was further removed by three rounds of dialysis in PBS. COST cells were grown in DMEM with 10% Fetal Calf Serum, 50 U/mL penicillin and 50 μg/mL streptomycin. Cells were transfected using Lipofectamine 2000 (Invitrogen) following manufacturer's instructions with 0.25 μg AP-IGF1R, 0.2 μg BirA-ER and 0.05 μg H2B-ECFP per well of a 48 well plate. Cells were incubated with 10 μM biotin overnight for optimum biotinylation by BirA-ER. On the next day, cells were washed 3× in PBS with 5 mM MgCl2 (PBS/Mg) and kept thereafter at 4° C. Cells were incubated for 15 min in PBS/Mg with 1% dialyzed BSA and 0.4 μM Alexa Fluor 555 conjugated […]. Cells were washed with PBS/Mg 3× before imaging live. Cells were imaged using a wide-field DeltaVision Core fluorescent microscope (AppliedPrecision) with a 40× oil-immersion lens. ECFP (436DF20 excitation, 480DF40 emission, Chroma 86002v1 dichroic), Alexa Fluor 555 (540D420 excitation, 600DF50 emission, Chroma 84100bs polychroic), and bright-field images were collected and analyzed using softWoRx 3.6.2 software. Typical exposure times were 0.1-1.0 s and fluorescence images were background-corrected. Different samples in the same experiment were prepared, imaged and analyzed under identical conditions."}, "[10]": {"assay_type": "binding", "procedure": "AFM cantilevers (Veeco MLCT-AUHW) with a nominal spring constant of 0.01 N/m were used in all measurements and calibrated by the thermal fluctuation method (Hutter and Bechhoefer, 1993, Review of Scientific Instruments, 64, 1868-1873). Cantilevers were briefly washed in acetone and then UV irradiated for 15 minutes. Cantilevers were then briefly dipped in 0.1M NaHCO3 pH 9.0, air-dried, and coated in 0.5 mg/mL biotinamidocaproyl-Bovine Serum Albumin (biotin-BSA) (Sigma) overnight at 4° C. in a humidified chamber. Cantilevers were washed three times in PBS and then coated with 0.01-0.3 mg/mL streptavidin or […] for 15 mins at 25° C. […] dishes were coated with 0.1M NaHCO3 pH 9 and then 0.5 mg/mL non-recombinant streptavidin (from Streptomyces avidinii, Pierce) in 0.1M NaHCO3 pH 9 overnight in a humidified chamber at 4° C. Biotinylated agarose beads (Sigma) were aspirated onto the dish. Measurements were conducted at 25° C. with a custom built AFM (Rico and Moy, 2007, J. Mol. Recogniti., 20, 495-501). […] Single molecule rupture forces were determined by calculating the force in the retraction trace at the initial point of rupture, using Igor Pro 6.04 (Wavemetrics Inc.). […] The loading rate was determined as the slope of the force vs time plot before the rupturing of the single molecule bond and significance was evaluated with the Mann-Whitney test."}, "[11]": {"details": "37° C., pH 7.4, excess free biotin"}}}
{"compound": "O=C(O)CCCC[C@@H]1SC[C@@H]2NC(=O)N[C@@H]21", "note": "[biotin, cis-hexahydro-2-oxo H-thieno[3,4] imidazole-4-pentanoic acid]", "values": [{"measurement": "pKa", "setting": "[1]", "value": "about 4"}]}
{"compound": "avidin: Avidin (Sigma), biotin binding protein used as comparator [reference compound]", "values": [{"measurement": "biotin conjugate off-rate (biotin-4-fluorescein dissociation)", "setting": "[2]; [11]", "value": "dissociated very much faster than streptavidin"}]}
{"compound": "streptavidin: wildtype streptavidin protein comprising four wildtype subunits; core streptavidin with C-terminal His6 used in the tests [reference compound]", "values": [{"measurement": "dissociated from the DNA by FtsK50C translocation", "setting": "[3]", "value": 33, "unit": "%"}, {"measurement": "biotin conjugate off-rate (biotin-4-fluorescein dissociation)", "setting": "[2]; [11]", "value": "dissociated steadily"}, {"measurement": "amount of B-4-F recovered", "setting": "[2]; 10 hour incubation, 37° C., excess biotin", "value": "at least 9%"}, {"measurement": "half life of free biotin", "setting": "[4]", "value": "approximately 6.6 hr"}, {"measurement": "off rate of biotin", "setting": "[4]", "value": "2.9e-05", "unit": "s⁻¹"}, {"measurement": "half life for conjugated biotin", "setting": "[5]", "value": "6 to 100", "unit": "h"}, {"measurement": "temperature at which there is 50% dissociation of biotin or biotin conjugate", "setting": "[6]", "value": "50-60 °C"}, {"measurement": "dissociation of biotinylated DNA at 70° C.", "setting": "[6]", "value": "complete dissociation"}, {"measurement": "temperature at which there is 50% dissociation of tetramer into monomer", "setting": "[7]", "value": "~75", "unit": "°C"}, {"measurement": "temperature at which there is 50% dissociation of tetramer into monomer", "setting": "[7]; listed as wildtype streptavidin", "value": "70-75 °C"}]}
{"compound": "traptavidin: S52G R53D mutant of core streptavidin with His6 tag, tetramer; subunit SEQ ID NO. 5", "values": [{"measurement": "on-rate reduction relative to streptavidin", "setting": "[8]", "value": "approximately 2 fold"}, {"measurement": "dissociated from the DNA by FtsK50C translocation", "setting": "[3]", "value": 11, "unit": "%"}, {"measurement": "binding to untransfected neighboring cells expressing only AP-IGF1R", "setting": "[9]; Alexa Fluor 555 conjugate", "value": "no detectable binding"}, {"measurement": "signal on AP-IGF1R/BirA-ER expressing cells", "setting": "[9]; Alexa Fluor 555 conjugate", "value": "strong signal"}, {"measurement": "specificity for cellular imaging", "setting": "[9]; Alexa Fluor 555 conjugate", "value": "high specificity"}, {"measurement": "staining compared with streptavidin", "setting": "[9]; each conjugated to Alexa Fluor 555", "value": "comparable"}, {"measurement": "binding to equivalently treated cells when pre-blocked with free biotin", "setting": "[9]; pre-blocked with free biotin", "value": "minimal binding"}, {"measurement": "biotin conjugate off-rate (biotin-4-fluorescein dissociation)", "setting": "[2]; [11]", "value": "dramatically reduced biotin conjugate off-rate"}, {"measurement": "change at the initial time-point (dissociation)", "setting": "[2]; [11]", "value": "~2", "unit": "%"}, {"measurement": "dissociation over the subsequent 12 hr", "setting": "[2]; [11]", "value": "very little dissociation"}, {"measurement": "off-rate at pH 5 of biotin-4-fluorescein", "setting": "[2]; pH 5, 37° C.", "value": "significantly slower than streptavidin"}, {"measurement": "dissociation of biotinylated DNA at 70° C.", "setting": "[6]", "value": "most ligand was still bound"}, {"measurement": "mechanical stability to a biotinylated ligand", "setting": "[10]", "value": "significantly greater mechanical stability than streptavidin"}, {"measurement": "temperature at which there is 50% dissociation of tetramer into monomer", "setting": "[7]", "value": "~85", "unit": "°C"}]}
